Laboratory results from patent publication US20260055102A1 (Redx Pharma Limited, priority 2022, published 2026).

Assays:
[1] = molecular target: Recombinant human DDR2 (aa427-855 containing a GST tag) (Homo sapiens (Human), UniProt Q16832); test: LanthaScreen Eu Kinase Binding Assay DDR2; settings: Kinase Tracer 178 10 nM, at least two independent replicates; for IC50: read-out: DDR2 pIC50 (converted)
Method in brief: (§1)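 DDR1 (2.5 nM) or DDR2 (1.75 nM) was preincubated with compound 30 min at RT in 50 mM HEPES pH 7.3, 10 mM MgCl2, 1 mM EGTA, 0.01% Tween. Eu-anti-GST and Tracer 178 were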

[2] = molecular target: Recombinant human DDR1 (aa440-876 containing a GST tag) (Homo sapiens (Human), UniProt Q08345); test: LanthaScreen Eu Kinase Binding Assay DDR1; settings: Kinase Tracer 178 5 nM, at least two independent replicates; for IC50: read-out: DDR1 pIC50 (converted)
Method in brief: as §1

Recombinant human DDR1 (aa440-876 containing a GST tag), sequence (Q08345 other isoform, or with tags, fused parts or gaps): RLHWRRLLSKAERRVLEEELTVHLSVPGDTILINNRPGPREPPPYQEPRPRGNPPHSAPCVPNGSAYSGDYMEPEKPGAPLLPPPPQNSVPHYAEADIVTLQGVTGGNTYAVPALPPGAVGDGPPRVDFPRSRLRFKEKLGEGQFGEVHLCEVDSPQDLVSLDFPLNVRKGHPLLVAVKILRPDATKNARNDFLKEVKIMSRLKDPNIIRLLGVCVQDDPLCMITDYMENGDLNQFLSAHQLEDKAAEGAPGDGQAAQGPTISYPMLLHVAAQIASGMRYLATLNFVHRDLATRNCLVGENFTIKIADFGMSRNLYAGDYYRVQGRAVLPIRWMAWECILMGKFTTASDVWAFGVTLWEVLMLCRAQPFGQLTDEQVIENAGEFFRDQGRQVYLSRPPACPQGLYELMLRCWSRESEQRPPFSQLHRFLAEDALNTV
Recombinant human DDR2 (aa427-855 containing a GST tag), sequence (Q16832 427-855): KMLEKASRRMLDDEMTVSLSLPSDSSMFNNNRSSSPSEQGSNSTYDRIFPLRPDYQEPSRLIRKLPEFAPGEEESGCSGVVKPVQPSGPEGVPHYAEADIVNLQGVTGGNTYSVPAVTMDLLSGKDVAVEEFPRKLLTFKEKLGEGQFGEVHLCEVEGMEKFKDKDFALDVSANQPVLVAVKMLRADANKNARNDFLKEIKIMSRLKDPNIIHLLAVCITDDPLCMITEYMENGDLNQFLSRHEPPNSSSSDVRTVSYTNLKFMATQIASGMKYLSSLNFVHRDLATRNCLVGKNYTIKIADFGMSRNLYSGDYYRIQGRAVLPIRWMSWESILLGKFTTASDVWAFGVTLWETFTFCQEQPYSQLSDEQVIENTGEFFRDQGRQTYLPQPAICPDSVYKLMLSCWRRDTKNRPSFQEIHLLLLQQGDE

| Structure (SMILES) | DDR2 pIC50 [1] | DDR1 pIC50 [2] | IC50 [1] [nM] | IC50 [2] [nM] |
| --- | --- | --- | --- | --- |
| Cn1ncc2c(-c3ccc(-n4c(=O)n(CC(=O)NCC(F)(F)F)c5ccncc54)cc3)cncc21 [Example 77, 2-[3-[4-(1-methylpyrazolo[3,4-c]pyridin-4-yl)phenyl]-2-oxo-imidazo[4,5-c]pyridin-1-yl]-N-(2,2,2-trifluoroethyl)acetamide] | D (pIC50≤6) | D (pIC50≤6) | – | – |
| Cn1ncc2c(-c3ccc(-n4c(=O)n(CC(=O)NCC(F)(F)F)c5cnccc54)cc3)cncc21 [Example 78, 2-[1-[4-(1-methylpyrazolo[3,4-c]pyridin-4-yl)phenyl]-2-oxo-imidazo[4,5-c]pyridin-3-yl]-N-(2,2,2-trifluoroethyl)acetamide] | D (pIC50≤6) | D (pIC50≤6) | – | – |
| Cc1nc(-c2cncc3[nH]nc(C)c23)cnc1-n1c(=O)n(CC(=O)NCC(F)(F)F)c2cccc(C)c21 [Example 104, 2-[4-methyl-3-[3-methyl-5-(3-methyl-1H-pyrazolo[3,4-c]pyridin-4-yl)pyrazin-2-yl]-2-oxo-benzimidazol-1-yl]-N-(2,2,2-trifluoroethyl)acetamide] | D (pIC50≤6) | D (pIC50≤6) | – | – |
| Cn1ncc2c(-c3ccc(-n4c(=O)n(CC(=O)N5CCC[C@H]5C(F)F)c5ccccc54)cc3)cncc21 [Example 25, 1-[2-[(2S)-2-(difluoromethyl)pyrrolidin-1-yl]-2-oxo-ethyl]-3-[4-(1-methylpyrazolo[3,4-c]pyridin-4-yl)phenyl]benzimidazol-2-one] | – | A (pIC50>8) | 10 to 100 | – |
| Cc1nc(-c2cncc3c2cnn3C)ccc1-n1c(=O)n(CC(=O)N[C@H](C)C(F)(F)F)c2cccc(C)c21 [Example 112] | – | – | 100 to 1000 | 10 to 100 |
| Cc1cccc2c1n(-c1ccc(-c3cncc4c3cnn4C)cc1)c(=O)n2CC(=O)N1CCC[C@H]1C(F)(F)F [Example 8, 4-methyl-3-[4-(1-methylpyrazolo[3,4-c]pyridin-4-yl)phenyl]-1-[2-oxo-2-[(2S)-2-(trifluoromethyl)pyrrolidin-1-yl]ethyl]benzimidazol-2-one] | A (pIC50>8) | A (pIC50>8) | – | – |
| Cc1cc(-c2cncc3c2cnn3C)cc(C)c1-n1c(=O)n(CC(=O)NCC(F)(F)F)c2ccccc21 [Example 90, 2-[3-[2,6-dimethyl-4-(1-methylpyrazolo[3,4-c]pyridin-4-yl)phenyl]-2-oxo-benzimidazol-1-yl]-N-(2,2,2-trifluoroethyl)acetamide] | D (pIC50≤6) | – | – | 100 to 1000 |
| Cc1cccc2c1n(-c1ncc(-c3cncc4c3cnn4C)cn1)c(=O)n2CC(=O)NCC(F)(F)F [Example 66, 2-[4-methyl-3-[5-(1-methylpyrazolo[3,4-c]pyridin-4-yl)pyrimidin-2-yl]-2-oxo-benzimidazol-1-yl]-N-(2,2,2-trifluoroethyl)acetamide] | D (pIC50≤6) | – | – | 10 to 100 |
| Cc1cc(-c2cncc3c2cnn3C)ncc1-n1c(=O)n(CC(=O)N[C@H](C)C(F)(F)F)c2cccc(C)c21 [Example 107] | D (pIC50≤6) | – | – | 100 to 1000 |
| Cn1ncc2c(-c3ccc(-n4c(=O)n(CC(=O)NCC(F)(F)F)c5ccccc54)c(F)c3)cncc21 [Example 15, 2-[3-[2-fluoro-4-(1-methylpyrazolo[3,4-c]pyridin-4-yl)phenyl]-2-oxo-benzimidazol-1-yl]-N-(2,2,2-trifluoroethyl)acetamide] | D (pIC50≤6) | – | – | 100 to 1000 |
| O=C(Cn1c(=O)n(-c2ccc(-c3cncc4[nH]ncc34)cc2)c2ccccc21)NCC(F)(F)F [Example 41, 2-[2-oxo-3-[4-(1H-pyrazolo[3,4-c]pyridin-4-yl)phenyl]benzimidazol-1-yl]-N-(2,2,2-trifluoroethyl)acetamide] | – | – | 100 to 1000 | 10 to 100 |
| Cc1cccc2c1n(-c1ccc(-c3cncc4c3cnn4C)nc1)c(=O)n2CC(=O)N1CCOC(C(F)(F)F)C1 (stereo in doubt) [Example 55, 4-methyl-3-[6-(1-methylpyrazolo[3,4-c]pyridin-4-yl)-3-pyridyl]-1-[2-oxo-2-[(2S)-2-trifluoromethyl)morpholin-4-yl]ethyl]benzimidazol-2-one] | – | – | 100 to 1000 | < 10 |
| Cc1cccc2c1n(-c1ccc(-c3cncc4c3cnn4C)cn1)c(=O)n2CC(=O)N[C@@H](C)C(F)(F)F [Example 57, 2-[4-methyl-3-[5-(1-methylpyrazolo[3,4-c]pyridin-4-yl)-2-pyridyl]-2-oxo-benzimidazol-1-yl]-N-[(1S)-2,2,2-trifluoro-1-methyl-ethyl]acetamide] | C (7≥pIC50>6) | A (pIC50>8) | – | – |
| Cc1cc(-n2c(=O)n(CC(=O)NCC(F)(F)F)c3cccc(C)c32)cnc1-c1cncc2[nH]nc(C)c12 [Example 102, 2-[4-methyl-3-[5-methyl-6-(3-methyl-1H-pyrazolo[3,4-c]pyridin-4-yl)-3-pyridyl]-2-oxo-benzimidazol-1-yl]-N-(2,2,2-trifluoroethyl)acetamide] | D (pIC50≤6) | – | – | 100 to 1000 |
| Cn1ncc2c(-c3ccc(-n4c(=O)n(CC(=O)NCC(F)(F)F)c5ccccc54)nc3)cncc21 [Example 63, 2-[3-[5-(1-methylpyrazolo[3,4-c]pyridin-4-yl)-2-pyridyl]-2-oxo-benzimidazol-1-yl]-N-(2,2,2-trifluoroethyl) acetamide] | D (pIC50≤6) | – | – | 100 to 1000 |
| Cc1cccc2c1n(-c1cnc(-c3cncc4c3cnn4C)nc1)c(=O)n2CC(=O)NCC(F)(F)F [Example 75, 2-[4-methyl-3-[2-(1-methylpyrazolo[3,4-c]pyridin-4-yl)pyrimidin-5-yl]-2-oxo-benzimidazol-1-yl]-N-(2,2,2-trifluoroethyl)acetamide] | – | – | 100 to 1000 | 10 to 100 |
| Cc1cc(-c2cncc3c2cnn3C)ccc1-n1c(=O)n(CC(=O)NCC(F)(F)F)c2cccc(Cl)c21 [Example 83, 2-[4-chloro-3-[2-methyl-4-(1-methylpyrazolo[3,4-c]pyridin-4-yl)phenyl]-2-oxo-benzimidazol-1-yl]-N-(2,2,2-trifluoroethyl)acetamide] | – | A (pIC50>8) | 100 to 1000 | – |
| Cc1cc(-c2cncc3c2cnn3C)cnc1-n1c(=O)n(CC(=O)N[C@H](C)C(F)(F)F)c2cccc(C)c21 [Example 111] | D (pIC50≤6) | – | – | 100 to 1000 |
| Cn1ncc2c(-c3ccc(-n4c(=O)n(CC(=O)NCC(F)(F)F)c5ccccc54)cc3)cncc21 [Example 1, 2-[3-[4-(1-methylpyrazolo[3,4-c]pyridin-4-yl)phenyl]-2-oxobenzimidazol-1-yl]-N-(2,2,2-trifluoroethyl)acetamide] | D (pIC50≤6) | – | – | 10 to 100 |
| Cc1cccc2c1n(-c1cnc(-c3cncc4c3cnn4C)cn1)c(=O)n2CC(=O)N[C@@H](C)C(F)(F)F [Example 49, 2-[4-methyl-3-[5-(1-methylpyrazolo[3,4-c]pyridin-4-yl)pyrazin-2-yl]-2-oxo-benzimidazol-1-yl]-N-[(1S)-2,2,2-trifluoro-1-methyl-ethyl]acetamide] | – | A (pIC50>8) | 10 to 100 | – |
| Cn1ncc2c(-c3ccc(-n4c(=O)n(CC(=O)NC5CC5(F)F)c5ccccc54)cc3)cncc21 (centres unmarked) [Example 36, N-(2,2-difluorocyclopropyl)-2-[3-[4-(1-methylpyrazolo[3,4-c]pyridin-4-yl)phenyl]-2-oxobenzimidazol-1-yl]acetamide] | D (pIC50≤6) | – | – | 100 to 1000 |
| Cn1ncc2c(-c3ccc(-n4c(=O)n(CC(=O)N5CCCC5C(F)(F)F)c5ccccc54)cc3)cncc21 (centres unmarked) [Example 18, 1-[4-(1-methylpyrazolo[3,4-c]pyridin-4-yl)phenyl]-3-[2-oxo-2-[2-(trifluoromethyl)pyrolidin-1-yl]ethyl]benzimidazol-2-one] | – | A (pIC50>8) | 10 to 100 | – |
| Cc1cccc2c1n(-c1ccc(-c3cncc4c3cnn4C)nc1)c(=O)n2CC(=O)NCC(F)(F)F [Example 50, 2-[4-methyl-3-[6-(1-methylpyrazolo[3,4-c]pyridin-4-yl)-3-pyridyl]-2-oxo-benzimidazol-1-yl]-N-(2,2,2-trifluoroethyl)acetamide] | – | A (pIC50>8) | 10 to 100 | – |
| C[C@@H]1CCCN1C(=O)Cn1c(=O)n(-c2ccc(-c3cncc4c3cnn4C)cc2)c2ccccc21 [Example 27, 1-[4-(1-methylpyrazolo[3,4-c]pyridin-4-yl)phenyl]-3-[2-[(2R)-2-methylpyrrolidin-1-yl]-2-oxoethyl]benzimidazol-2-one] | D (pIC50≤6) | – | – | 10 to 100 |
| Cc1cc(-c2cncc3c2cnn3C)cnc1-n1c(=O)n(CC(=O)NCC(F)(F)F)c2cccc(C)c21 [Example 110] | D (pIC50≤6) | – | – | 10 to 100 |
| COc1cccc2c1n(-c1ccc(-c3cncc4c3cnn4C)cc1)c(=O)n2CC(=O)NCC(F)(F)F [Example 12, 2-[4-methoxy-3-[4-(1-methylpyrazolo[3,4-c]pyridin-4-yl)phenyl]-2-oxobenzimidazol-1-yl]-N-(2,2,2-trifluoroethyl)acetamide] | D (pIC50≤6) | – | – | 10 to 100 |
| Cc1cc(-c2cncc3[nH]ncc23)ncc1-n1c(=O)n(CC(=O)NCC(F)(F)F)c2cccc(C)c21 [Example 93, 2-[4-methyl-3-[4-methyl-6-(1H-pyrazolo[3,4-c]pyridin-4-yl)-3-pyridyl]-2-oxo-benzimidazol-1-yl]-N-(2,2,2-trifluoroethyl)acetamide] | – | A (pIC50>8) | 100 to 1000 | – |
| Cn1ncc2c(-c3ccc(-n4c(=O)n(CC(=O)N5CCOCC5)c5ccccc54)cc3)cncc21 [Example 22, 1-[4-(1-methylpyrazolo[3,4-c]pyridin-4-yl)phenyl]-3-(2-morpholino-2-oxoethyl)benzimidazol-2-one] | D (pIC50≤6) | D (pIC50≤6) | – | – |
